From the supplement of paper PMC5662764
± gives the standard deviation of the averaged measurements.

How the values were obtained:
Experiment in all cases: normalised growth rate inhibition (GR value) relative to DMSO control (GR (1 = untreated growth, 0 = cytostasis, <0 = cytotoxic)); higher = less growth inhibition
Conditions in all cases: 72 h
MCF7 = test system: MCF7
Description: (§1)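 Breast cancer cell lines (BT-20, Hs 578T, MCF 10A, MCF7, MDA-MB-231, SK-BR-3) were plated in 384-well plates and treated 24 h later with drugs at six concentrations (0.04-10 µM). Viable cells were counted by Hoechst/dead-cell-stain imaging at 0 and 72 h. Counts were normalised to DMSO controls on the same plate to give the relative cell count and the growth-rate inhibition (GR) value; technical plate triplicates were averaged for each biological replicate.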

MDAMB231 = test system: MDAMB231
Description: as §1

HS578T = test system: HS578T
Description: as §1

MCF10A = test system: MCF10A
Description: as §1

SKBR3 = test system: SKBR3
Description: as §1

BT20 = test system: BT20
Description: as §1

SMILES	normalised growth rate inhibition (MCF7; 0.04 µM)	normalised growth rate inhibition (MCF7; 0.12 µM)	normalised growth rate inhibition (MCF7; 0.37 µM)	normalised growth rate inhibition (MCF7; 1.11 µM)	normalised growth rate inhibition (MCF7; 3.33 µM)	normalised growth rate inhibition (MCF7; 10 µM)	normalised growth rate inhibition (MDAMB231; 0.04 µM)	normalised growth rate inhibition (MDAMB231; 0.12 µM)	normalised growth rate inhibition (MDAMB231; 0.37 µM)	normalised growth rate inhibition (MDAMB231; 1.11 µM)	normalised growth rate inhibition (MDAMB231; 3.33 µM)	normalised growth rate inhibition (MDAMB231; 10 µM)	normalised growth rate inhibition (HS578T; 0.04 µM)	normalised growth rate inhibition (HS578T; 0.12 µM)	normalised growth rate inhibition (HS578T; 0.37 µM)	normalised growth rate inhibition (HS578T; 1.11 µM)	normalised growth rate inhibition (HS578T; 3.33 µM)	normalised growth rate inhibition (HS578T; 10 µM)	normalised growth rate inhibition (MCF10A; 0.04 µM)	normalised growth rate inhibition (MCF10A; 0.12 µM)	normalised growth rate inhibition (MCF10A; 0.37 µM)	normalised growth rate inhibition (MCF10A; 1.11 µM)	normalised growth rate inhibition (MCF10A; 3.33 µM)	normalised growth rate inhibition (MCF10A; 10 µM)	normalised growth rate inhibition (SKBR3; 0.04 µM)	normalised growth rate inhibition (SKBR3; 0.12 µM)	normalised growth rate inhibition (SKBR3; 0.37 µM)	normalised growth rate inhibition (SKBR3; 1.11 µM)	normalised growth rate inhibition (SKBR3; 3.33 µM)	normalised growth rate inhibition (SKBR3; 10 µM)	normalised growth rate inhibition (BT20; 0.04 µM)	normalised growth rate inhibition (BT20; 0.12 µM)	normalised growth rate inhibition (BT20; 0.37 µM)	normalised growth rate inhibition (BT20; 1.11 µM)	normalised growth rate inhibition (BT20; 3.33 µM)	normalised growth rate inhibition (BT20; 10 µM)
O=c1cc(N2CCOCC2)oc2c(-c3cccc4c3sc3ccccc34)cccc12 [NU-7441]	1 ± 0.055	0.955 ± 0.024	0.937 ± 0.053	0.892 ± 0.1	0.747 ± 0.11	0.241 ± 0.28	1.02 ± 0.043	0.955 ± 0.046	0.892 ± 0.085	0.843 ± 0.075	0.579 ± 0.11	0.147 ± 0.16	0.974 ± 0.01	0.9337 ± 0.0078	0.911 ± 0.022	0.789 ± 0.037	0.612 ± 0.02	0.144 ± 0.094	1.022 ± 0.0064	1.001 ± 0.0035	0.9817 ± 0.005	0.957 ± 0.015	0.894 ± 0.034	0.357 ± 0.3	1.04 ± 0.036	0.957 ± 0.035	0.868 ± 0.061	0.714 ± 0.15	0.644 ± 0.082	0.199 ± 0.077	1.06 ± 0.025	1.02 ± 0.044	0.998 ± 0.035	0.958 ± 0.049	0.853 ± 0.098	0.263 ± 0.17
Cn1c(=O)n(-c2ccc(C(C)(C)C#N)cc2)c2c3cc(-c4cnc5ccccc5c4)ccc3ncc21 [NVP-BEZ235]	0.166 ± 0.15	0.122 ± 0.16	0.0651 ± 0.16	0.0257 ± 0.12	0.034 ± 0.1	0.068 ± 0.071	0.397 ± 0.2	0.301 ± 0.19	0.196 ± 0.2	0.216 ± 0.15	0.223 ± 0.11	0.266 ± 0.095	0.261 ± 0.067	0.197 ± 0.078	0.109 ± 0.087	0.132 ± 0.11	0.115 ± 0.052	0.128 ± 0.044	0.393 ± 0.24	0.269 ± 0.12	0.171 ± 0.038	0.164 ± 0.048	0.168 ± 0.052	0.202 ± 0.03	0.0857 ± 0.065	0.0449 ± 0.11	-0.0406 ± 0.12	-0.04 ± 0.11	-0.035 ± 0.12	0.0305 ± 0.11	0.254 ± 0.1	0.13 ± 0.12	0.0662 ± 0.092	0.061 ± 0.042	0.055 ± 0.039	0.103 ± 0.053
COc1cc(N2CCC(N3CCN(C)CC3)CC2)ccc1Nc1ncc(Cl)c(Nc2ccccc2S(=O)(=O)C(C)C)n1 [NVP-TAE684]	0.553 ± 0.22	0.133 ± 0.13	-0.0107 ± 0.12	-0.108 ± 0.053	-0.129 ± 0.021	-0.198 ± 0.18	0.908 ± 0.035	0.737 ± 0.11	0.694 ± 0.089	0.389 ± 0.14	0.117 ± 0.14	-0.228 ± 0.21	0.885 ± 0.041	0.61 ± 0.098	0.609 ± 0.073	0.351 ± 0.11	0.111 ± 0.042	-0.201 ± 0.15	0.889 ± 0.06	0.754 ± 0.19	0.647 ± 0.14	0.555 ± 0.12	0.429 ± 0.14	0.123 ± 0.1	1.08 ± 0.047	0.782 ± 0.2	0.928 ± 0.069	0.691 ± 0.16	0.197 ± 0.2	-0.232 ± 0.068	1.04 ± 0.012	0.776 ± 0.2	0.972 ± 0.088	0.829 ± 0.13	0.447 ± 0.3	0.133 ± 0.28
Oc1cccc(-c2nc(N3CCOCC3)c3oc4ncccc4c3n2)c1 [PI-103]	0.71 ± 0.14	0.379 ± 0.16	0.0687 ± 0.081	-0.0473 ± 0.051	-0.0779 ± 0.063	-0.153 ± 0.1	0.772 ± 0.075	0.637 ± 0.1	0.42 ± 0.25	0.371 ± 0.12	0.291 ± 0.18	0.0948 ± 0.18	0.676 ± 0.047	0.397 ± 0.075	0.249 ± 0.13	0.174 ± 0.16	0.148 ± 0.17	0.0951 ± 0.13	0.96 ± 0.066	0.76 ± 0.22	0.427 ± 0.24	0.196 ± 0.067	0.125 ± 0.032	0.0826 ± 0.033	0.9 ± 0.045	0.579 ± 0.1	0.221 ± 0.052	-0.00817 ± 0.15	-0.0811 ± 0.2	-0.137 ± 0.17	0.949 ± 0.084	0.723 ± 0.26	0.357 ± 0.32	0.0983 ± 0.17	-0.0552 ± 0.017	-0.115 ± 0.034
